From patent US20110130346A1, “PEPTIDE CONJUGATES FOR DELVERY OF BIOLOGICALLY ACTIVE COMPOUNDS” (ISIS INNOVATION LIMITED, priority 2008, published 2011)

Key:
[1] = tested on: exon and intron 23 of the dystrophin gene; assay: Example 3: intramuscular injection of glucose-formulated AOs, dystrophin-positive myofibres by immunohistochemistry; type: in vivo; conditions: intramuscular into TA, 8 week old mdx mice, two weeks
Experimental: Here we study a novel delivery glucose formulation by evaluating it via local intramuscular injection into the mdx mouse tibialis anterior (TA) muscle. Initial experiments were performed in 6-8 week old mdx mice (referred to as 8 weeks) by treatment with a single dose of 5 ug of 2′OMePS AO formulated in 5% glucose. In a parallel control study, age-matched control mdx mice were treated with the same AO dose formulated in standard saline buffer.
(§1) For intramuscular studies the TA muscle of each experimental mdx mouse was injected with a 40 μl dose of PNA and PNA-peptide conjugates with saline at a final concentration of 125 μg/ml, and the contralateral muscle was injected with saline. […]
(§2) Sections of 8 μm were cut from at least two-thirds of the muscle length of TA, quadriceps, gastrocnemius, biceps, abdominal wall and diaphragm muscles and cardiac muscle at 100 μm intervals. […] The maximum number of dystrophin-positive fibres in one section was counted using the Zeiss AxioVision fluorescence microscope. […] Polyclonal antibodies were detected by goat-anti-rabbit IgGs Alexa Fluro 594 (Molecular Probe, UK). […] Polyclonal antibodies were detected by goat-anti-rabbit IgGs Alexa 594 and the monoclonal antibodies by goat-anti-mouse IgGs Alexa 594 (Molecular Probe, UK). […]

[2] = tested on: exon and intron 23 of the dystrophin gene; assay: Example 3: intramuscular glucose-formulated AOs, RT-PCR of exon skipping; type: in vivo, mdx mice
Experimental: Total RNA was extracted from skeletal muscle and heart tissue with Trizol (Invitrogen, UK) and 200 ng of RNA template was used for 20 μl RT-PCR with OneStep RT-PCR kit (Qiagen, UK). The primer sequences for the initial RT-PCR were Exon20Fo 5′-[…]-3′ and Ex26Ro 5′-[…]-3′ for amplification of messenger RNA from exons 20 to 26. The cycle conditions were 95° C. for 30 seconds, 55° C. for 1 minute and 72° C. for 2 minutes for 25 cycles. RT-PCR product (1 μl) was then used as the template for secondary PCR performed in 25 μl with 0.5 U Taq DNA polymerase (Invitrogen, UK). The primer sequences for the second round were Ex20Fi 5′-[…]-3′ and Ex24Ri 5′-[…]-3. The cycle conditions were 95° C. for 1 minute, 57° C. for 1 minute, and 72° C. for 2 min for 25 cycles. The products were examined by electrophoresis on a 2% agarose gel.
as §1, with “saline. For systemic intravenous injections, X μg PNA or PNA-peptide conjugates in 80 μl saline buffer were injected into tail vein of mdx mice at the final dose of 25 mg/kg and 6 mg/kg, respectively.” for “saline.”

[3] = tested on: exon and intron 23 of the dystrophin gene; assay: Example 3: intramuscular glucose-formulated AOs, Western blot of dystrophin; type: in vivo, mdx mice
Experimental: For intramuscular studies the TA muscle of each experimental mdx mouse was injected with a 40 μl dose of PNA and PNA-peptide conjugates with saline at a final concentration of 125 μg/ml, and the contralateral muscle was injected with saline. For systemic intravenous injections, X μg PNA or PNA-peptide conjugates in 80 μl saline buffer were injected into tail vein of mdx mice at the final dose of 25 mg/kg and 6 mg/kg, respectively. The animals were killed at various time points after injection by CO2 inhalation and tissues were removed and snap-frozen in liquid nitrogen-cooled isopentane and stored at −80° C.
The collected sections were placed in a 1.5 ml polypropylene eppendorf tube (Anachem, UK) on dry ice. […] The supernatant was collected and the protein concentration was quantified by Bradford assay (Sigma, UK). […] The bound primary antibody was detected by horseradish peroxidise-conjugated rabbit anti-mouse IgGs and the ECL Western Blotting Analysis system (Amersham Pharmacia Biosciences, UK). The intensity of the bands obtained from treated mdx muscles was measured by Image J software; the quantification is based on band intensity and area, and is compared with that from normal muscles of C57BL6 mice.

[4] = tested on: exon and intron 23 of the dystrophin gene; assay: Example 3: intravenous glucose-formulated AOs, dystrophin immunohistochemistry; type: in vivo, mdx mice; conditions: single intravenous dose of 25 mg/kg
Description: (§3) Given the dramatic enhancement in AO uptake and exon skipping activity and dystrophin restoration observed following intramuscular delivery of glucose-formulated AO we wished to study whether or not such enhancement could also facilitate improved systemic AO delivery and splice correcting activity. Initially we chose to study whether or not systemic PMO AO delivery was enhanced following glucose formulation. We compared PMO formulated in saline with PMO formulated in either 5% glucose or formulated in glucose at a final concentration of 4.5% and delivered these via a single intravenous dose of 25 mg/kg in mdx mice.
We further studied the intravenous enhancing effects by investigating the effects on a peptide conjugated PMO compound using a well characterised arginine-rich peptide (RXR)4. […]
as §2

[5] = tested on: exon and intron 23 of the dystrophin gene; assay: Example 3: intravenous glucose-formulated AOs, RT-PCR of splice correction; type: in vivo, mdx mice; conditions: single intravenous dose of 25 mg/kg, various muscle groups
Description: as §3
We further studied the intravenous enhancing effects by investigating the effects on a peptide conjugated PMO compound using a well characterised arginine-rich peptide (RXR)4.
Total RNA was extracted from skeletal muscle and heart tissue with Trizol (Invitrogen, UK) and 200 ng of RNA template was used for 20 μl RT-PCR with OneStep RT-PCR kit (Qiagen, UK). The primer sequences for the initial RT-PCR were Exon20Fo 5′-[…]-3′ and Ex26Ro 5′-[…]-3′ for amplification of messenger RNA from exons 20 to 26. The cycle conditions were 95° C. for 30 seconds, 55° C. for 1 minute and 72° C. for 2 minutes for 25 cycles. RT-PCR product (1 μl) was then used as the template for secondary PCR performed in 25 μl with 0.5 U Taq DNA polymerase (Invitrogen, UK). […]

5′-GGCCAAACCTCGGCTTACCTGAAAT-3′ (morpholino backbone, further chemistry not given here) [PMO, neutrally charged PMO AO, M23D, 25 mer]
dystrophin-positive myofibres, 5% glucose formulation compared with saline formulation [1]: no significant difference | exon skipping activity at the RNA level, glucose versus saline formulation [2]: enhanced exon skipping activity | dystrophin protein expression on Western blot, glucose versus saline formulation [3]: increased dystrophin protein expression | corrected dystrophin-positive fibres, glucose (5% or 4.5%) versus saline formulation [4]: significant enhancements | dystrophin splice correction at the RNA level, glucose versus saline formulation [5]: enhanced dystrophin splice correction
